Results reported in patent US7981457B2, “Taste improving substances” (Quest International B.V. & Quest International Services B.V., priority 2004, dated 2011).

Test: tasting of LC-MS fractions of the product of Example 1
Type: in vivo
Details: fractions of the Example 1 product, content shown by 1H NMR
Procedure: 30 g of ethyl lactate and 10 g of GMP were thoroughly mixed in 90 g of glycerol to obtain a clear solution. The mixture was heated under stirring at 120° C. for 1 hour. A white precipitate was formed at the end of the heating period. The mixture was cooled to 70° C. and 100 g of isopropyl alcohol was added followed by stirring. Next, the mixture was filtered over a glass filter and the filter residue was washed three times with 300 g isopropyl alcohol. Thus, 12 g of an almost white powder was obtained. The main taste components of the obtained product were identified using LC-MS and tasting different fractions.

Compound | taste of the fractions containing the substance
O-lactoyl GMP | “long-lasting” and “kokumi”
CC(O)C(=O)Nc1nc2c(ncn2[C@@H]2O[C@H](COP(=O)(O)O)[C@@H](O)[C@H]2O)c(=O)[nH]1 (some centres unmarked) [N-lactoyl GMP] | “long-lasting” and “kokumi”
